Ends that are not written are not given here.
B1: Pure CEA: carcinoembryonic antigen purified from colonic tumor tissue by perchloric acid extraction, chromatography and block electrophoresis (protein, UniProt P06731 35-685, looked up)
Cell adhesion molecule CEACAM5: KLTIESTPFNVAEGKEVLLLVHNLPQHLFGYSWYKGERVDGNRQIIGYVIGTQQATPGPAYSGREIIYPNASLLIQNIIQNDTGFYTLHVIKSDLVNEEATGQFRVYPELPKPSISSNNSKPVEDKDAVAFTCEPETQDATYLWWVNNQSLPVSPRLQLSNGNRTLTLFNVTRNDTASYKCETQNPVSARRSDSVILNVLYGPDAPTISPLNTSYRSGENLNLSCHAASNPPAQYSWFVNGTFQQSTQELFIPNITVNNSGSYTCQAHNSDTGLNRTTVTTITVYAEPPKPFITSNNSNPVEDEDAVALTCEPEIQNTTYLWWVNNQSLPVSPRLQLSNDNRTLTLLSVTRNDVGPYECGIQNELSVDHSDPVILNVLYGPDDPTISPSYTYYRPGVNLSLSCHAASNPPAQYSWLIDGNIQQHTQELFISNITEKNSGLYTCQANNSASGHSRTTVKTITVSAELPKPSISSNNSKPVEDKDAVAFTCEPEAQNTTYLWWVNGQSLPVSPRLQLSNGNRTLTLFNVTRNDARAYVCGIQNSVSANRSDPVTLDVLYGPDTPIISPPDSSYLSGANLNLSCHSASNPSPQYSWRINGIPQQHTQVLFIAKITPNNNGTYACFVSNLATGRNNSIVKSITVSASGTSPGLSA

Assays:
[1] = tested on: antisera agglutinating CEA(1-11)-A--L-coated sheep erythrocytes; assay: Inhibition of passive hemagglutination; format: binding; conditions: serum concentration twice that of the hemagglutination titer
Description: Hemagglutination and Inhibition of Hemagglutination. Sheep erythrocytes were treated with formalin, tanned, and coated with the CEA(1-11) peptide or with the conjugates (CEA(1-11)-A--L or CEA(1-11)-BSA, Herbert: Handbook Exp. Immun., Oxford (1964), 720, Blackwell, Sci. Pub.
Passive microhemagglutination tests, Kabat: Structural Concepts in Immun. and Immunochem. (1968), Holt, Reinhart and Winston, Inc., N.Y., were performed on disposable microtiter plates (Cooke Engineering Co., Alexandira, Va.) by 2-fold serial dilutions of antisera in phosphate-buffered saline (0.15 M NaCl-0.01 M sodium phosphate buffer, pH 7.0), containing 0.1% ovalbumin (twice crystallized, Schwarz/Mann). The plates were incubated at room temperature and read after 2 and 4 hr.
In inhibition experiments serial dilutions of the respective inhibitor were allowed to react for 30 min with the antisera (at the last dilution that had given positive agglutination) prior to the addition of the coated erythrocytes. Inhibition results were also read after 2 and 4 hr.

anti-CEA(1-11)-BSA serum = assay: Inhibition of inactivation of CEA(1-11)-T4 by anti-CEA(1-11)-BSA serum; format: binding, rabbit; conditions: for inhibition of the inactivation of CEA(1-11)-T4: in words
Description: Inactivation and Inhibition of Inactivation of CEA(1-11)-coated T4 Bacteriophage. The preparation of CEA(1-11)-coated T4 bacteriophage was carried out according to the procedure described by Haimovich et al., Biochim. Biophys. Acta 207 (1970) 115, making use of glutaraldehyde as crosslinking agent. The resulting modified bacteriophage preparation was tested for inactivation with anti-CEA(1-11)-BSA serum, by incubation for 21/2 hr at 37° in the presence of different dilutions of the antiserum, and monitoring the surviving phage by subsequent plating with bacteria.
In inhibition experiments the inhibitors were allowed to react at room temperature, overnight, with the amount of antiserum that would have caused approximately 90% inactivation of the bacteriophage conjugate, Haimovich et al. Biochim. Biophys. Acta 207 (1970) 125. The modified bacteriophage was then added to the mixture and the number of surviving phage was determined as described above. The percentage of inhibition was calculated from the extent of inactivation in the presence and in the absence of the inhibitor.

[2] = Immunization of rabbits, antibody production; format: in vivo, rabbit; conditions: intradermal in complete Freund's adjuvant, in words
Description: Immunization Procedure. Antisera against the CEA(1-11) peptide were obtained by immunizing rabbits with CEA(1-11) as the free peptide and with the two conjugates CEA(1-11)-A--L and CEA(1-11)-BSA. The rabbits were immunized by multisite intradermal injections in complete Freund's adjuvant. Each rabbit received two injections of 4 mg at 2-week intervals and was subsequently bled weekly from the marginal vein, starting 1 week after the last injection.

Row | Molecule | lowest concentration of inhibitor that still prevents agglutination ([1]; antiserum against CEA(1-11)-A--L) | lowest concentration of inhibitor that still prevents agglutination ([1]; antiserum against CEA(1-11)-BSA) | lowest concentration of inhibitor that still prevents agglutination ([1]; antiserum against Crude CEA) | lowest concentration of inhibitor that still prevents agglutination ([1]; antiserum against Pure CEA) | inhibition of the inactivation of CEA(1-11)-T4 (anti-CEA(1-11)-BSA serum) | Inhibition (%) (anti-CEA(1-11)-BSA serum; inhibitor concentration 0.001 μg/ml) | Inhibition (%) (anti-CEA(1-11)-BSA serum; inhibitor concentration 0.0033 μg/ml) | Inhibition (%) (anti-CEA(1-11)-BSA serum; inhibitor concentration 0.01 μg/ml) | Inhibition (%) (anti-CEA(1-11)-BSA serum; inhibitor concentration 0.033 μg/ml) | Inhibition (%) (anti-CEA(1-11)-BSA serum; inhibitor concentration 0.1 μg/ml) | Inhibition (%) (anti-CEA(1-11)-BSA serum; inhibitor concentration 0.33 μg/ml) | Inhibition (%) (anti-CEA(1-11)-BSA serum; inhibitor concentration 1 μg/ml) | Inhibition (%) (anti-CEA(1-11)-BSA serum; inhibitor concentration 3 μg/ml) | antibody production on immunization [2]
1 | LNFPTSEITLK [CEA(1-11), synthetic undecapeptide corresponding to the first eleven NH2-terminal residues of CEA, with leucine replacing valine in the 11-position] | 1 µg/mL | 10 µg/mL | 100 µg/mL | 1 µg/mL | could be inhibited | 0% | 38% | 64% | 82% | 92% | 100% | 98% | 100% | antisera of low titer
2 | B1 | – | – | – | – | No inhibition | – | – | – | – | – | – | – | – | –
